Values quoted from earlier work in patent publication US20130029928A1 (priority 2010, published 2013).
Like-named read-outs stand apart in the source and are kept apart here.

Key:
primary rat hepatocytes = conditions: Bjork (2009); cited from earlier work
[1] = cited from earlier work
[2] = in vivo; cited from earlier work
[3] = biological target: liver X receptor β (LXRβ) (Homo sapiens, UniProt P55055); conditions: ref (14); cited from earlier work
[4] = following oral exposure; literature; cited from earlier work
rats [5] = conditions: doses below those causing maternal toxicity; cited from earlier work
[6] = biological target: retinoid X receptor α (RXRα) (Homo sapiens, UniProt P19793); conditions: ref (14); cited from earlier work
Sequence of retinoid X receptor α (RXRα) (P19793 whole entry, species assumed): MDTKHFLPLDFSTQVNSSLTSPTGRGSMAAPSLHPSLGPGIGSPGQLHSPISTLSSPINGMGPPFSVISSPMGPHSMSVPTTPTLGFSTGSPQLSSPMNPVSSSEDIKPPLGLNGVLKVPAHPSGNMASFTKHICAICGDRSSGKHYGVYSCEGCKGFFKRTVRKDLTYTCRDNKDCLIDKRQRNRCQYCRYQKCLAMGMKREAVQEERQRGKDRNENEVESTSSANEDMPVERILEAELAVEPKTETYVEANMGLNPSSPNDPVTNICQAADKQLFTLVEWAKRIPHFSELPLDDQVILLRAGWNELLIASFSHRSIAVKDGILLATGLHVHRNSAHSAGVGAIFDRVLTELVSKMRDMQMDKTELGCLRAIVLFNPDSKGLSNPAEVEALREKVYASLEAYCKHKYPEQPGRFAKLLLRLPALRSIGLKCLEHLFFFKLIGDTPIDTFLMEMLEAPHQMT

rats [7] = conditions: cited from earlier work
Breast cancer cell lines = conditions: read-out: IC50 (Concentration, literature); Mol. Cancer Ther. (2002); cited from earlier work

Sequence of liver X receptor β (LXRβ) (P55055 whole entry, species assumed): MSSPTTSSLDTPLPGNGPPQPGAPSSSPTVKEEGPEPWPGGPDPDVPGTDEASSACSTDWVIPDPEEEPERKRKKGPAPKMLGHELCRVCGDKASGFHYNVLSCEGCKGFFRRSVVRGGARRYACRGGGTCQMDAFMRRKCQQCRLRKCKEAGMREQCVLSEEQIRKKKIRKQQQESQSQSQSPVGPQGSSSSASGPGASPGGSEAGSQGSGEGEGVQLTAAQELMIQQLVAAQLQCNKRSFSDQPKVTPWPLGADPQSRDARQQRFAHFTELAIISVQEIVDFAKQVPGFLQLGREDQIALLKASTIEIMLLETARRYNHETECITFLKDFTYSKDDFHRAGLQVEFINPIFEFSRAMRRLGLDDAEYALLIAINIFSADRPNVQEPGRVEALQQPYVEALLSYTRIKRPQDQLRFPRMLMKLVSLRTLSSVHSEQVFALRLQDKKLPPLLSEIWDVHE

Row | Compound | concentration causing increased expression of DDIT3/CHOP/GADD153 (primary rat hepatocytes) [µM] | clearance of blood levels ([1]; female rats, 24 hrs after dosing) [%] | accumulation in blood ([1]; female rats, 25 mg/kg oral after 10 previous similar doses) | extent of biliary excretion ([1]; female rats) [%] | time to peak blood levels ([1]; single gavage 25 mg/kg, rats) [h] | total radioactivity absorbed ([1]; single oral dose 14C-PFOA 11 mg/kg, male rats, at 24 hrs) | acute oral toxicity [2] | activation of LXRβ [3] | metabolism [4] | teratogenic or foetotoxic effects (rats [5]) | activation of RXRα [6] | tumour incidence (liver, pancreas acinar cell, testes Leydig cell adenomas) (rats [7]; 30 ppm in the diet) | tumour incidence (liver, pancreas acinar cell, testes Leydig cell adenomas) (rats [7]; 300 ppm in the diet) | IC50 (Breast cancer cell lines) [µM]
1 | O=C(O)C(F)(F)C(F)(F)C(F)(F)C(F)(F)C(F)(F)C(F)(F)C(F)(F)F [PFOA, perfluorooctanoic acid] | ≥ 30 | > 95 | does not appear to accumulate | < 1.0 | 1 to 2 | at least 93% | moderate acute oral toxicity | Neither liver X receptor β (LXRβ) nor the common heterodimerization partner retinoid X receptor α (RXRα) are activated | not metabolised | no teratogenic or foetotoxic effects | Neither liver X receptor β (LXRβ) nor the common heterodimerization partner retinoid X receptor α (RXRα) are activated | not at 30 ppm | increased incidence of benign tumours | 
2 | N#CC(=C(/N)Sc1ccccc1N)/C(C#N)=C(\N)Sc1ccccc1N [U0126] |  |  |  |  |  |  |  |  |  |  |  |  |  | 10 to 20
